In patent US20030153538A1, “Antitumor agent” (The Nisshin OilliO, Ltd., priority 2000, published 2003):

Key:
[1] = tested on: B16 melanoma cells; experiment: Test for malignant melanoma metastasis-inhibitory effect (lung metastasis after i.v. injection of B16 melanoma cells); type: in vivo, Whister female rats; details: metastasis of cancer to lung; rats; summary of Table 2
Protocol: The tumor cell-metastasis-inhibitory effect can be evaluated according to, for instance, the malignant melanoma metastasis-inhibitory test. More specifically, a suspension of B16 melanoma cells prepared in advance is intravenously injected into Whister female rats, cotton seed oil in which each test substance is dissolved in a predetermined concentration is intraperitoneally administered through injection or orally administered using a sonde, every second day starting from 2nd day after the intravenous injection of the suspension. In this connection, only cotton seed oil is administered to the control group of animals. The lungs are extracted from these animals on the 15th day after the injection of the B16 melanoma cells, the lungs are examined to determine the number of cancer lesions thus metastasized to thus calculate the rate of metastasis-inhibition. The tumor cell-metastasis-inhibitory effect of each test sample is evaluated on the basis of the resulting rate of metastasis-inhibition.
Tests for evaluating the malignant melanoma metastasis-inhibitory effect of each test sample were conducted according to the following method. Whister female rats (6-week-old; average body weight: 160 g) were preliminarily bred with a powdery feed preparation having a composition of AIN-93 for one week, these animals were divided into 5 groups (8 animals per group) so as to equalize the average body weight and then a previously prepared suspension of B16 melanoma cells was intravenously injected into each rat. Subsequently, these animals were bred with a powdery feed preparation having a composition of AIN-93 and cotton seed oil in which each of maslinic acid, erythrodiol, ursolic acid, uvaol, betulinic acid, betulin, compounds of Synthetic Examples 1 and 2, or oleanolic acid had been dissolved in a predetermined concentration was intraperitoneally injected into each animal or orally administered thereto using a sonde, every other day starting from the 2nd day after the injection of the B 16 melanoma cells. In this connection, only cotton seed oil was administered to the control group. On the 15th day after the injection of the B 16 melanoma cells, the lung of each animal was taken out, the lungs were examined to determine the number of cancer lesions thus metastasized and to thus calculate the rate of metastasis-inhibition in accordance with the following equation 2. The tumor cell-metastasis-inhibitory effect of each test sample could be evaluated on the basis of the resulting rate of metastasis-inhibition.
Rate of Metastasis-Inhibition (%)=[(D−C)/D]×100
Wherein C: Average number of cancer lesions metastasized observed in each animal group; and D: average number of cancer lesions metastasized observed in the control group.
Maslinic acid, erythrodiol, ursolic acid, uvaol, betulinic acid, betulin and physiologically acceptable salts thereof or derivatives thereof as well as cotton seed oil as the control were inspected for the rate of metastasis-inhibition (RMI) using the dose and administration methods specified in the following Table 2. In addition, the same procedures used above were repeated except for using oleanolic acid as a comparative sample to thus evaluate the rate of metastasis-inhibition (RMI) thereof.

[2] = tested on: B-16 melanoma cells; experiment: Tests for tumor cell-proliferation-inhibitory effect and tumor cell-extinction (cell growth rate from viable cell count); type: cell-based
Protocol: The tumor cell-proliferation-inhibitory effect and the tumor cell-killing or extinction effect can be determined according to the following method using B-16 melanoma cells.
More specifically, B-16 melanoma cells are inoculated in each well of a 6-well plate in a desired amount, followed by allowing the plate to stand at 37° C. and 5% carbon dioxide concentration to thus cultivate the cells, adding a sample solution to be tested (maslinic acid, erythrodiol, ursolic acid, uvaol, betulinic acid, betulin and physiologically acceptable salts thereof or derivatives thereof) to each well in an amount sufficient for achieving a desired concentration, on the next day or after 5 days from the initiation of the cultivation, determination of viable cell count on the 6th day after the initiation of the cultivation and calculation of the cell growth rate based on the viable cell count to thus evaluate the tumor cell-proliferation-inhibitory effect and the tumor cell-killing effect.
Tests for determining the tumor cell-proliferation-inhibitory effect and the tumor cell-killing effect were conducted according to the following method. To a 6-well plate, a culture medium was dispensed in an amount of 2 mL/well, B-16 melanoma cells were then inoculated in a desired quantity and thereafter the melanoma cells were cultivated by allowing the plate or the culture medium to stand at 37° C. and a carbon dioxide concentration of 5%. On the following day, a test sample solution prepared was added to and admixed with the content of each well to a desired concentration and the cultivation of the melanoma cells was continued. The culture medium was then exchanged on the 5th day from the initiation of the cultivation and the test sample solution was again added to each well. On the next day, the culture medium was removed to recover the cultivated melanoma cells, followed by washing the cells with PBS (phosphate buffered saline), determination of the viable cell count, and then calculation of the cell growth rate according to the following equation 1. The tumor cell-proliferation-inhibitory effect and the tumor cell-killing effect of each test sample were evaluated on the basis of the cell growth rate thus determined.
Cell Growth Rate (%)=(A/B)×100
As comparative examples, oleanolic acid, β-amyrin, α-amyrin and lupeol were added to the culture medium to thus determine and evaluate the cell growth rate by the same method used above.

Q: Which “tumor cell-metastasis-inhibitory effect compared with the control group (in words)” value [1] does the source give for `CC1(C)CC[C@]2(C(=O)O)CC[C@]3(C)C(=CC[C@@H]4[C@@]5(C)C[C@@H](O)[C@H](O)C(C)(C)[C@@H]5CC[C@]43C)[C@@H]2C1` [maslinic acid] here?
A: The value was “significantly (P<0.05) inhibit any metastasis of cancer to lung”.

Q: What about the “tumor cell-killing effect (in words)” value ([2]; at not less than 2 times the concentration required for proliferation inhibition) of the same molecule?
A: The value was “quite intensive tumor cell-killing effects”.

Q: And the “tumor cell-proliferation-inhibitory effect (in words)” value ([2]; summary of Table 1)?
A: Its value is “quite strong tumor cell-proliferation-inhibitory effects”.
